From publication PMC7515921, “MFSD7C switches mitochondrial ATP synthesis to thermogenesis in response to heme” (Nature Communications, 2020)

Target: T1, MFSD7C (major facilitator superfamily domain containing 7C; FLVCR2; SLC49A2) (Homo sapiens, UniProt Q9UPI3)
T1 construct: N-terminal domain (NTD), amino acids 1–84
T1 sequence (Q9UPI3 1-84): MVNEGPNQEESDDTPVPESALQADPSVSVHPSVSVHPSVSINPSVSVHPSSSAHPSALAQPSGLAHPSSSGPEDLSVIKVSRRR
Assay: ITC with purified NTD; also heme absorbance-shift (Soret/Q band) and gel-filtration co-elution
Format: binding

C=CC1=C(C)C2=Cc3c(C=C)c(C)c4[n]3[Fe][n]3c(c(C)c(CCC(=O)O)c3=CC3=NC(=C4)C(C)=C3CCC(=O)O)=CC1=N2 [heme]
Kd: ~1000 nM
